Measured values as given in patent US20200375987A1, “METALLO-BETA-LACTAMASE INHIBITORS AND METHODS OF USE THEREOF” (priority 2018, published 2020).

Columns and labels:
VIM-1 = VIM-1 (Pseudomonas aeruginosa, UniProt A0A0F7KYQ8); test: Enzyme activity: determination of IC50, fluorescence assay with CCF2-FA substrate (VIM-1); assay type: biochemical; details: 30 pM enzyme, 1.25 μM CCF2-FA, 2 hours at 25° C.; read-out: VIM1 IC50
Procedure, shortened: (§1)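 Metallo-β-lactamase activity read by fluorescence against CCF2-FA (1.25 μM final) in 100 mM KH2PO4 pH 7 with 0.005% Tween-20 and 10 μM ZnSO4; enzyme final at 1 pM NDM-1, 2 pM IMP-1 or 30 pM VIM-1. Inhibitor at 20 to 0.00063 μM, 2 h at 25° C; IC50 by 4-parameter fit.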

NDM-1 = NDM-1 (Klebsiella pneumoniae, UniProt C7C422); test: Enzyme activity: determination of IC50, fluorescence assay with CCF2-FA substrate (NDM-1); assay type: biochemical; details: 1 pM enzyme, 1.25 μM CCF2-FA, 2 hours at 25° C.; read-out: NDM1 IC50
NDM-1, sequence (C7C422 29-270, looked up, species assumed): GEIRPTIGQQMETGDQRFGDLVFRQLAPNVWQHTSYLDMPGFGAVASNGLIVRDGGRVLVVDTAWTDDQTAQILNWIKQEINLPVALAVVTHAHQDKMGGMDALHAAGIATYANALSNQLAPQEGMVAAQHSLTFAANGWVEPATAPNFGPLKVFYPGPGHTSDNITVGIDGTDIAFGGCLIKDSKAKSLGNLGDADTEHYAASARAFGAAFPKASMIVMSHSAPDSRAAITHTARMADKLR
Procedure, shortened: as §1

[1] = tested on: P. aeruginosa MB9798 (efflux WT, IMP-1); test: Efflux: concentration of MBL inhibitor restoring susceptibility to imipenem (MITC95), efflux+ strain; assay type: cell-based, Pseudomonas aeruginosa; details: imipenem at 2 μg/mL in the presence of a class A, C, D serine β-lactamase inhibitor closely related to relebactam
Procedure, shortened: (§2)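 Isogenic P. aeruginosa PAO1 strains, efflux+ and efflux−, transformed with IMP-1 plasmid, were tested by microbroth MIC with fixed imipenem, usually at CLSI breakpoint, plus fixed class A/C β-lactamase inhibitor against AmpC. MBL inhibitor was serially titrated; the concentration restoring susceptibility was recorded.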

[2] = tested on: P. aeruginosa MB9799 (efflux mutant, IMP-1); test: Efflux: concentration of MBL inhibitor restoring susceptibility to imipenem (MITC95), efflux− strain; assay type: cell-based, Pseudomonas aeruginosa; details: imipenem at 2 μg/mL in the presence of a class A, C, D serine β-lactamase inhibitor closely related to relebactam
Procedure, shortened: as §2

[3] = tested on: Klebsiella pneumoniae expressing VIM-1 (IHMA599644); test: Antibiotic potentiation activity: synergistic concentration (MITC95) with imipenem; assay type: cell-based; details: imipenem 1 μg/mL; lowest concentration inhibiting 95% of growth; 35° C., 22-24 hours
Procedure, shortened: (§3)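 Clinical MBL-expressing strains diluted into 1.1× CAMHB were incubated with compound plus imipenem at 1 μg/mL for 22–24 h at 35 °C, then absorbance was read. MITC95 is the lowest compound concentration giving 95% growth inhibition in the presence of imipenem.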

[4] = tested on: Serratia marcescens expressing IMP-1 (CL5741); test: as above; assay type: cell-based; details: imipenem 1 μg/mL; lowest concentration inhibiting 95% of growth; 35° C., 22-24 hours
Procedure, shortened: as §3

[5] = tested on: Escherichia coli expressing NDM-1 (CLB30016); test: as above; assay type: cell-based; details: imipenem 1 μg/mL; lowest concentration inhibiting 95% of growth; 35° C., 22-24 hours
Procedure, shortened: as §3

VIM-2 = VIM-2 (Escherichia coli, UniProt Q5U7L7); test: Enzyme activity: determination of IC50 (VIM-2); assay type: biochemical; details: read-out: VIM2 IC50
IMP-1 = IMP-1 (Serratia marcescens, UniProt P52699); test: Enzyme activity: determination of IC50, fluorescence assay with CCF2-FA substrate (IMP-1); assay type: biochemical; details: 2 pM enzyme, 1.25 μM CCF2-FA, 2 hours at 25° C.; read-out: IMP1 IC50
IMP-1, sequence (P52699 19-246, looked up, species assumed): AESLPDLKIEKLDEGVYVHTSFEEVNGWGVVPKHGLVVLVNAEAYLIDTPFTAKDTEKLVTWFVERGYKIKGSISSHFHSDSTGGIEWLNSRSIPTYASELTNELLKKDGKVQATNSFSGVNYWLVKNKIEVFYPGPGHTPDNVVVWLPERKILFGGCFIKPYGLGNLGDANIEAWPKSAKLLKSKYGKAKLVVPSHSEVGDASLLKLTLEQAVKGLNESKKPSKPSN
Procedure, shortened: as §1

SMILES	IC50 (VIM-1)	IC50 (NDM-1)	MB9798 MITC95 P. aeruginosa Efflux WT [1]	MB9799 MITC95 P. aeruginosa Efflux Mutant [2]	IHMA599644 K.pneumoniae MITC95 uM VIM [3]	CL5741 S.marcescens MITC95 uM IMP [4]	CLB30016 E.coli MITC95 NDM [5]	IC50 (VIM-2)	IC50 (IMP-1)
NS(=O)(=O)c1c(S(=O)(=O)N[C@@H]2CCNC2)ccc(N2CCCc3ccncc32)c1-c1nnn[nH]1 [Example 21, 4-(3,4-dihydro-1,7-naphthyridin-1(2H)-yl)-N1-[(3R)-pyrrolidin-3-yl]-3-(1H-tetrazol-5-yl)benzene-1,2-disulfonamide]	0.22 nM	0.21 nM	3.13 µM	1.56 µM	6.25 µM	0.78 µM	0.20 µM	1.24 nM	2.46 nM
NCC(CN)NS(=O)(=O)c1ccc(N2CCn3ccnc3C2)c(-c2nn[nH]n2)c1S(N)(=O)=O [Example 10, N1-(1,3-diaminopropan-2-yl)-4-(5,6-dihydroimidazo[1,2-a]pyrazin-7(8H)-yl)-3-(2H-tetrazol-5-yl)benzene-1,2-disulfonamide]	0.25 nM	1.17 nM	3.13 µM	1.56 µM	1.56 µM	0.39 µM	0.10 µM	0.99 nM	2.96 nM
NS(=O)(=O)c1c(S(=O)(=O)N[C@@H]2CCNC2)ccc(N2CCn3ccnc3C2)c1-c1nnn[nH]1 [Example 9, (R)-4-(5,6-dihydroimidazo[1,2-a]pyrazin-7(8H)-yl)-N1-(pyrrolidin-3-yl)-3-(1H-tetrazol-5-yl)benzene-12-disulfonamide]	0.1 nM	0.48 nM	1.56 µM	0.78 µM	1.56 µM	0.20 µM	0.39 µM	0.49 nM	2.17 nM
NC[C@@H](O)CNS(=O)(=O)c1ccc(N2CCc3nc(N)[nH]c3C2)c(-c2nn[nH]n2)c1S(N)(=O)=O [Example 3, (R)—N^1-(3-amino-2-hydroxypropyl)-4-(2-amino-3,4,6,7-tetrahydro-5H-imidazo[4,5-c]pyridin-5-yl)-3-(2H-tetrazol-5-yl)benzene-1,2-disulfonamide]	22.6 nM	2.23 nM	6.25 µM	1.56 µM	6.25 µM	3.13 µM	0.78 µM	72.8 nM	5.72 nM
NS(=O)(=O)c1c(S(=O)(=O)N[C@@H]2CCNC2)ccc(N2CCn3cncc3C2)c1-c1nn[nH]n1 [Example 2, (R)-4-(5,6-dihydroimidazo[1,5-a]pyrazin-7(8H)-yl)-N^1-(pyrrolidin-3-yl)-3-(2H-tetrazol-5-yl)benzene-1,2-disulfonamide]	0.16 nM	0.3 nM	3.13 µM	0.78 µM	1.56 µM	0.78 µM	0.20 µM	0.68 nM	2.01 nM
NC[C@@H](O)CS(=O)(=O)c1ccc(N2CCCn3ccnc32)c(-c2nn[nH]n2)c1S(N)(=O)=O [Example 37, (R)-6-((3-amino-2-hydroxypropyl)sulfonyl)-3-(6,7-dihydroimidazo[1,2-a]pyrimidin-8(5H)-yl)-2-(2H-tetrazol-5-yl)benzenesulfonamide]	2.22 nM	4.31 nM	3.13 µM	0.78 µM	1.56 µM	0.78 µM	0.20 µM	4.44 nM	5.6 nM
NC[C@@H](O)CNS(=O)(=O)c1ccc(N2CCc3cccnc32)c(-c2nn[nH]n2)c1S(N)(=O)=O [Example 36, (R)—N1-(3-amino-2-hydroxypropyl)-4-(2,3-dihydro-1H-pyrrolo [2,3-b]pyridin-1-yl)-3-(2H-tetrazol-5-yl)benzene-1,2-disulfonamide]	0.27 nM	0.36 nM	12.50 µM	0.78 µM	3.13 µM	1.56 µM	1.56 µM	0.49 nM	1.4 nM
NC[C@@H](O)CNS(=O)(=O)c1ccc(-n2ccnc2)c(-c2nn[nH]n2)c1S(N)(=O)=O [Example 41, (R)—N1-(3-amino-2-hydroxypropyl)-4-(1H-imidazol-1-yl)-3-(2H-tetrazol-5-yl)benzene-1,2-disulfonamide]	1.05 nM	0.66 nM	1.56 µM	0.78 µM	1.56 µM	0.78 µM	0.78 µM	0.96 nM	2.97 nM
CCOC(=O)c1cn2c(n1)N(c1ccc(S(=O)(=O)N[C@@H]3CCNC3)c(S(N)(=O)=O)c1-c1nn[nH]n1)CCC2 [Example 5, ethyl (R)-8-(4-(N-(pyrrolidin-3-yl)sulfamoyl)-3-sulfamoyl-2-(2H-tetrazol-5-yl)phenyl)-5,6,7,8-tetrahydroimidazo[1,2-a]pyrimidine-2-carboxylate]	0.12 nM	0.04 nM	6.25 µM	3.13 µM	12.50 µM	6.25 µM	12.50 µM	0.55 nM	0.96 nM
C[C@H](N)CNS(=O)(=O)c1ccc(N2CCCn3ccnc32)c(-c2nn[nH]n2)c1S(N)(=O)=O [Example 14, (S)-N1-(2-aminopropyl)-4-(6,7-dihydroimidazo[1,2-a]pyrimidin-8(5H)-yl)-3-(2H-tetrazol-5-yl)benzene-1,2-disulfonamide]	0.97 nM	1.61 nM	3.13 µM	0.78 µM	1.56 µM	0.39 µM	0.10 µM	2.6 nM	6.32 nM
NC[C@@H](O)CNS(=O)(=O)c1ccc(N2CCCn3ccnc32)c(-c2nnn[nH]2)c1S(N)(=O)=O [Example 16, (R)-N1-(3-amino-2-hydroxypropyl)-4-(6,7-dihydroimidazo[1,2-a]pyrimidin-8(5H)-yl)-3-(1H-tetrazol-5-yl)benzene-1,2-disulfonamide]	0.38 nM	1.2 nM	3.13 µM	0.78 µM	1.56 µM	0.39 µM	0.10 µM	1.01 nM	5.93 nM
NS(=O)(=O)c1c(S(=O)(=O)N[C@@H]2CCNC2)ccc(N2CCc3[nH]cnc3C2)c1-c1nnn[nH]1 [Example 31, N1-[(3R)-pyrrolidin-3-yl]-4-(1,4,6,7-tetrahydro-5H-imidazo[4,5-c]pyridin-5-yl)-3-(1H-tetrazol-5-yl)benzene-1,2-disulfonamide]	0.59 nM	1.13 nM	3.13 µM	0.78 µM	3.13 µM	0.78 µM	0.20 µM	3.3 nM	7 nM
NC[C@@H](O)CNS(=O)(=O)c1ccc(N2CC[C@H](CO)n3ccnc32)c(-c2nn[nH]n2)c1S(N)(=O)=O [Example 40, N1-((R)-3-amino-2-hydroxypropyl)-4-((R)-5-(hydroxymethyl)-6,7-dihydroimidazo[1,2-a]pyrimidin-8(5H)-yl)-3-(2H-tetrazol-5-yl)benzene-1,2-disulfonamide]	0.27 nM	1.15 nM	1.56 µM	0.78 µM	1.56 µM	0.39 µM	0.10 µM	2.09 nM	5 nM
